Patent US12146880B2, “Artificial transcription factors comprising a sliding domain and uses thereof” (priority 2013, dated 2024)
Read-outs that look alike come from different tables or passages of the source. Primed or numbered codes have the meaning given here. Ends that are not written are not given here. TMR = fluorescent label conjugated to the Cys side chain; TMR″ = tetramethylrhodamine label

Tests used:
phage λ DNA = experiment: Sliding assay: total internal reflection fluorescence microscopy of single TMR-labeled peptides on flow-stretched phage λ DNA; assay type: biochemical, bacteriophage λ; conditions: for estimated 1D diffusion constants, D: peptides diffusing along λ-DNA, low salt buffer (FIG. 6); for 1D diffusion constant, D+SD / 1D diffusion constant, D+SEM: single molecule sliding trajectories; for 1D diffusion constant, D+SD: spread = standard deviation (FIGS. 7-12); for 1D diffusion constant, D+SEM: spread = standard mean error (FIGS. 7-12)
Excerpt: In vitro biophysical characterization of search process may be as follows. The search dynamics may be studied in vitro by directly observing fluorescently tagged compounds search DNA and bind their targets with a fluorescence microscope. In an exemplary method, linear fragments of DNA derived from bacteriophage λ (˜50 kb) are tethered on a glass coverslip and illuminated with TIRF microscopy. Flowing fluorescently tagged peptides over the coverslip stretches out the DNA hydrodynamically, and the peptides may be directly visualized as they search the DNA. Using computational algorithms, the peptides may be tracked and biophysical parameters such as the rate of diffusive translocation on DNA may be calculated from the estimated trajectories.
[…]. A flow cell was constructed on top of the cover slip such that when laminar flow is applied, the DNA stretches in the direction of flow and orients itself parallel to and in close proximity to the surface of the cover slip. Evanescent waves from a laser reflecting off the coverslip-buffer interface were used to illuminate a very small volume (˜1 pL) with a few hundred nanometers of the glass surface. The interaction of a single, TMR-labeled peptide with DNA was visualized by a CMOS camera (ORCA-Flash 4.0 from Hamamatsu) with 5 ms time-resolution. Despite the optical resolution limit imposed by diffraction, the centroid position of each signal in each frame is determined with sub-diffraction-limited resolution, typically 1-30 nm for bright fluorescent conjugates.
Labeled peptides were infused at concentration of 100-200 pM at rates of 20-50 mL/hour. High flow rates were chosen to drive the longitudinal DNA fluctuation faster than the imaging frame rate. The assay buffer consisted of 10 mM PBS (2 mM NaCl, 0.1 mM β-mercaptoethanol, 0.05 mM EDTA, 5% (v/v) glycerol, 0.01% (v/v) Tween-20, pH 6.8).

λ-DNA [1] = conditions: cited from earlier work; for D1 ± s.e.: results from Xiong et al
30 bp dsDNA [2] = experiment: Fluorescence polarization (FP) DNA binding experiments; conditions: Table S5; pH 7.4
λ-DNA [3] = experiment: Single molecule flow stretching experiments (1D diffusion of dye-labeled molecular sleds on λ-DNA); assay type: biochemical, bacteriophage λ; conditions: for D1 ± s.e.: Table S5, 2 mM NaCl buffer, pH 7.4, >50 trajectories
Excerpt: Single Molecule Flow Stretching Experiments: The experimental details have been described by Xiong et al. Briefly, flow cells were constructed by sandwiching a double-sided tape with pre-cut channels between a poly(ethylene glycol) (PEG) functionalized coverslip and a PDMS slab containing inlet and outlet holes. The biotin-λ-DNA was made by ligating a DNA oligo with a biotin attached to the 5′ overhang of λ-DNA, and then immobilized onto the flow channel surface by utilizing biotin and streptavidin chemistry. Samples were infused at 10-400 pM concentrations at rates of 25 ml/hr. The assay buffer consisted of 10 mM phosphate buffer, 2 mM NaCl, 50 μM EDTA, 20 mM ethanol, 5% (v/v) glycerol, 0.01% Tween-20 and 0.1% (v/v) $-mercaptoethanol, and the pH was adjusted to 7.4 by adding aliquots of concentrated NaOH solution. Individual dye-labeled molecules were imaged by using a home-built total internal reflection fluorescence microscope based on a Nikon Ti body with a Hamamatsu ORCA-Flash 4.0 VI camera. Applicants used customized single particle tracking software to process the raw image data^11.
To study the motion of single molecules bound to DNA, Applicants applied a single-molecule flow-stretching assay that prepares long double-stranded DNA molecules as spatially extended templates for analysis of binding and transport activity of molecular sleds labeled with fluorescent dye molecules. […] In this assay (see a schematic in FIG. 19), functionalized DNA, e.g., biotin-k-DNA, was immobilized to a flow channel surface by one end and a laminar flow was applied to flow stretch the DNA. The flow rate was chosen so that the contribution of DNA fluctuations to the apparent motion of DNA-bound molecules along the DNA is negligible and the trajectories of single molecules were tracked by time-lapse fluorescence imaging. Here, Applicants applied the flow-stretching assay to study one-dimensional diffusion of modified peptides, peptide analogs and synthetic small molecules bound to DNA.

30 bp dsDNA [4] = conditions: Table S1; Cy3B conjugated to Cys residues; results from Xiong et al; cited from earlier work

(K)13: TMR-labeled lysine homopolymer of 13 residues, SEQ ID NO: 52 (KKKKKKKKKKKKK; also: TMR-labeled, place not given here)
estimated 1D diffusion constants, D (phage λ DNA): 17.3 ± 5.3 million bp²/s

C(-TMR)-(K)13: TMR conjugated to Cys residue, SEQ ID NO: 36 (C(TMR)KKKKKKKKKKKKK)
D1 ± s.e. (λ-DNA [1]; Table S3): 19.9 ± 1.3 M(bp^2/S)

C(-TMR)-(R)13: TMR conjugated to Cys residue, SEQ ID NO: 37 (C(TMR)RRRRRRRRRRRRR)
D1 ± s.e. (λ-DNA [1]; Table S3): 12.9 ± 0.5 M(bp^2/S)

Cy3B-pentaethylenehexamine [Cy3B-PEHA]
Kd (30 bp dsDNA [2]): 1320 ± 248 nM
effect of increasing the salt concentration on the D1 value (λ-DNA [3]; 2 mM NaCl vs 20 mM NaCl buffers, pH 7.4 (FIG. 14)): does not increase
D1 ± s.e. (λ-DNA [3]): 10.1 ± 0.5 M(bp^2/S)
D1 ± s.e. (λ-DNA [3]; listed as PHEA-Cy3B): 10.1±0.5 M(bp^2/S)

FHHHHH
estimated 1D diffusion constants, D (phage λ DNA): 14.9 ± 6.9 million bp²/s

GRKKRRQRRRPPQ (also: TMR label, place not given here) [TAT]
estimated 1D diffusion constants, D (phage λ DNA): 21 ± 7.5 million bp²/s

GVQSLKRRRCF [pVlc-Cy38]
D1 ± s.e. (λ-DNA [1]; Table S1, Cy3B conjugated to Cys residues): 35.1 ± 0.8 M(bp^2/S)
sliding by itself (one-dimensional diffusion constant) (λ-DNA [1]; literature reference 11 (Xiong)): 35.2±0.8 M(bp2/s)
Kd (30 bp dsDNA [4]): 378 ± 20 nM

KRARNTEAARRSRAR [GCN4 helix]
1D diffusion constant, D+SD (phage λ DNA): 12.8±5.5 ×10^6 bp^2s^−1
1D diffusion constant, D+SEM (phage λ DNA): 12.8±0.6 ×10^6 bp^2s^−1

KRARNTEAARRSRAR-GSGSGS-KRRR (KRARNTEAARRSRARGSGSGSKRRR) [GCN4 helix-linker-KRRR]
1D diffusion constant, D+SD (phage λ DNA): 11.3±4.1 ×10^6 bp^2s^−1
1D diffusion constant, D+SEM (phage λ DNA): 11.3±0.6 ×10^6 bp^2s^−1

KRARNTEAARRSRAR-GSGSGS-pVIc [GCN4 helix-linker-pVIc]
1D diffusion constant, D+SD (phage λ DNA): 9.6±4.3 ×10^6 bp^2s^−1
1D diffusion constant, D+SEM (phage λ DNA): 9.6±0.7 ×10^6 bp^2s^−1

KRRR ({TMR″}-KRRR)
estimated 1D diffusion constants, D (phage λ DNA): 20.3 ± 7.9 million bp²/s

NVKRRTHNVLERQRRNELKRSFFALRDQ [cMyc helix]
1D diffusion constant, D+SD (phage λ DNA): 12.8±5.0 ×10^6 bp^2s^−1
1D diffusion constant, D+SEM (phage λ DNA): 12.8±0.3 ×10^6 bp^2s^−1

STSRHKKLMFKTE ({TMR″}-STSRHKKLMFKTE) [C-terminal sequence of p53]
estimated 1D diffusion constants, D (phage λ DNA): 17.3 ± 5.3 million bp²/s

TMR-(K)13: TMR conjugated to the N-terminal amine, SEQ ID NO: 38 ({TMR″}-KKKKKKKKKKKKK)
D1 ± s.e. (λ-DNA [1]; Table S3): 8.9 ± 0.5 M(bp^2/S)

TMR-(R)13: TMR conjugated to the N-terminal amine, SEQ ID NO: 39 ({TMR″}-RRRRRRRRRRRRR)
D1 ± s.e. (λ-DNA [1]; Table S3): 7.7 ± 0.7 M(bp^2/S)
